Reference: patent US6818203B2, “Use of perfluoroalkyl-containing metal complexes as contrast media in MR-imaging for visualization of plaque, tumors and necroses” (Schering Aktiengesellschaft, priority 2000, dated 2004)

What was measured:
iliac lymph nodes = test: lymph node visualization (MRT) after intravenous administration in rats; format: in vivo; details: for signal in healthy lymph node tissue (T1-weighted gradient-echo images): very shortly after injection
Experimental: (§1) By way of example, the pictures in FIG. 8 show MR images of iliac lymph nodes precontrast and up to 60 minutes after intravenous administration of 100 μmol of Gd/kg of body weight of metal complex X in rats. […] The enhancement was thus 263% at the time of 15 minutes p.i. and 254% at the time of 60 minutes p.i.
as §1, with “11” for “8”, “200” for “100”, “V” for “X”, “147%” for “263%”, “230%” for “254%”
as §1, with “17” for “8”, “200” for “100”, “III” for “X”, “320%” for “263%”, “401%” for “254%”

[1] = test system: primary tumor (VX2-tumor implanted i.m.); test: tumor visualization (MRT) after intravenous administration in VX2-tumor-bearing rabbits; format: in vivo; details: 200 μmol of Gd/kg i.v.; for enhancement of the primary tumor (especially the periphery): 15 minutes p.i.; for enhancement of the primary tumor (center of the tumor): 24 hours p.i.
Experimental: The pictures of FIG. 6 show MR images of an iliac lymph node and of a primary tumor (VX2-tumor implanted i.m.) precontrast, 60 minutes and 20 hours after intravenous administration of 100 μmol of Gd/kg of body weight of metal complex I in rabbits. […]

[2] = 15 minutes p.i., 200 μmol of Gd/kg i.v.
[3] = 60 minutes p.i., 200 μmol of Gd/kg i.v.

O=C([O-])CN1CCN(CC(=O)[O-])CCN(CC(O)CNC(=O)CCCC(=O)N2CCN(C(F)(F)C(F)(F)C(F)(F)C(F)(F)C(F)(F)C(F)(F)C(F)(F)C(F)(F)F)CC2)CCN(CC(=O)[O-])CC1.[Gd+3] (centres unmarked) [metal complex III]
enhancement in lymph node tissue (iliac lymph nodes; [2]): 320% | enhancement in lymph node tissue (iliac lymph nodes; [3]): 401% | signal in healthy lymph node tissue (T1-weighted gradient-echo images) (iliac lymph nodes; 200 μmol of Gd/kg i.v.): strong signal rise | enhancement of the primary tumor (especially the periphery) [1]: 232%

CC(C(=O)NCC(=O)N(CCOCCC(F)(F)C(F)(F)C(F)(F)C(F)(F)C(F)(F)C(F)(F)C(F)(F)C(F)(F)F)CC(O)CO)N1CCN(CC(=O)[O-])CCN(CC(=O)[O-])CCN(CC(=O)[O-])CC1.[Gd+3] (centres unmarked) [metal complex V]
enhancement in lymph node tissue (iliac lymph nodes; [2]): 147% | enhancement in lymph node tissue (iliac lymph nodes; [3]): 230% | signal in healthy lymph node tissue (T1-weighted gradient-echo images) (iliac lymph nodes; 200 μmol of Gd/kg i.v.): strong signal rise | enhancement of the primary tumor (especially the periphery) [1]: 350% | enhancement of the primary tumor (center of the tumor) [1]: 106%

COCCN(CCOCCC(F)(F)C(F)(F)C(F)(F)C(F)(F)C(F)(F)C(F)(F)C(F)(F)C(F)(F)F)C(=O)CNC(=O)C(C)N1CCN(CC(=O)[O-])CCN(CC(=O)[O-])CCN(CC(=O)[O-])CC1.[Gd+3] (centres unmarked) [metal complex X]
enhancement in lymph node tissue (iliac lymph nodes; 15 minutes p.i., 100 μmol of Gd/kg i.v.): 263% | enhancement in lymph node tissue (iliac lymph nodes; 60 minutes p.i., 100 μmol of Gd/kg i.v.): 254% | signal in healthy lymph node tissue (T1-weighted gradient-echo images) (iliac lymph nodes; 100 μmol of Gd/kg i.v.): strong signal rise | enhancement of the primary tumor (especially the periphery) [1]: 277% | enhancement of the primary tumor (center of the tumor) [1]: 217%
